Source: patent US10028933B2, “Compositions and methods for inhibiting the growth of multi-drug resistant microbes” (priority 2015, dated 2018)
Entries after “also recorded” stand apart in the source; their conditions may differ.

How the values were obtained:
Salmonella Typhimurium = conditions: cited from earlier work
[1] = long term oral exposures up to 33 weeks; cited from earlier work
Francisella tularensis = conditions: cited from earlier work
[2] = preclinical studies; cited from earlier work
P. aeruginosa [3] = assay: direct bacterial killing assay in media alone of CF clinical P. aeruginosa isolate (24 hours); conditions: media devoid of human macrophages or neutrophils, n=3
[4] = test system: B. cenocepacia strain k56-2; conditions: 5 μM AR-13 alone
human CF and non-CF MDMs = assay: macrophage viability assay at 24 h
B. cenocepacia = assay: direct bacterial killing assay in media alone (optical absorbance density over 24 hours)
P. aeruginosa [5] = conditions: AR-13 alone
MRSA = assay: bacterial killing assay of CF clinical MRSA isolate in media (optical absorbance density, 24 hours); type: cell-based

| SMILES | antibacterial activity against intracellular Salmonella Typhimurium in macrophages (Salmonella Typhimurium) | safety profile in phase I study [1] | antibacterial activity against intracellular Francisella tularensis in macrophages (Francisella tularensis) | accumulation in tissues relative to blood level concentrations [2] | blood brain barrier penetration [2] | direct killing of P. aeruginosa in media (P. aeruginosa [3]) | reduction in B. cenocepacia burden in infected CF and non-CF macrophages [4] [%] | AR-13 concentrations tolerated by CF and non-CF macrophages and neutrophils (human CF and non-CF MDMs; CF and non-CF macrophages and neutrophils) | macrophage viability (human CF and non-CF MDMs; human CF and non-CF MDMs, uninfected or infected with B. cenocepacia, 24 h) | AR-13 concentrations resulting in increased toxicity (human CF and non-CF MDMs; uninfected MDMs) | reduction of optical absorbance density of B. cenocepacia compared to no treatment (B. cenocepacia; AR-13 alone vs B. cenocepacia alone, media, 24 hour period, n=3) | direct killing / bacterial growth of B. cenocepacia in media alone (B. cenocepacia; media alone, 24 hours, AR-13 5 μM) | reduction in P. aeruginosa burden in CF neutrophils (P. aeruginosa [5]; CF neutrophils) [%] | reduction in P. aeruginosa burden in non-CF neutrophils (P. aeruginosa [5]; non-CF neutrophils) [%] | killing of MRSA in media (MRSA; 24 hours, media) | reduction of optical absorbance density of MRSA compared to no treatment (MRSA; CF clinical MRSA isolate, 24 hour period, n=3) | AR-13 concentration of greatest efficacy against MRSA (dose titration) (MRSA; dose titration 5, 2.5, 1.25 μM, 24 hours, n=3) [µM] |
| --- | --- | --- | --- | --- | --- | --- | --- | --- | --- | --- | --- | --- | --- | --- | --- | --- | --- |
| NCC(=O)Nc1ccc(-n2nc(C(F)(F)F)cc2-c2ccc3c(ccc4ccccc43)c2)cc1 [AR-12] | antibacterial activity | acceptable safety profile | antibacterial activity | exceeding the blood level concentrations by several fold | rapid blood brain barrier penetration | – | – | – | – | – | – | – | – | – | – | – | – |
| NS(=O)(=O)Nc1ccc(-n2nc(C(F)(F)F)cc2-c2ccc3c(ccc4ccccc43)c2)cc1 [AR-13, N-{4-[5-(Phenanthren-2-yl)-3-(trifluoromethyl)-1H-pyrazol-1-yl]phenyl}sulfuric diamide] | – | – | – | – | – | did not demonstrate direct killing; also recorded: did not enhance bacterial killing in media; also recorded: no direct effect | 23 | up to 10 μM | no significant differences in cell viability; also recorded: does not impact macrophage viability | above 10 μM | about 1.3 fold | significant reduction in bacterial growth; also recorded: direct killing effect | 70 | 66 | bacterial optical density increases as the dose of AR-13 decreases | about 1.3 fold | 5 |
